The target of one data set is T1, BTK (Homo sapiens, UniProt Q06187).
T1 construct: purchased Nanosyn, Santa Clara, Calif; host or cells: 293HEK
The experiment in a line: BTK kinase electrophoretic mobility shift assay (MSA). The format is biochemical. As to conditions: 50 μM ATP, 0.5 nM BTK enzyme (Nanosyn-293HEK, WT), 3 hours at 25° C.; all examples except 50, 51, 62 and 63; read-out: BTK IC50.

Another data set concerns CYP3A4. The data set is described as follows: CYP3A4 induction assay (CYP 3A4 mRNA by qPCR in cryopreserved human hepatocytes). The format is in vitro ADME. To be noted: CYP3A4 mRNA fold change vs vehicle, 10 μM compound. On the procedure: CYP induction was evaluated in vitro by determining the expression levels of CYP 3A4 mRNA using the qPCR (quantitative polymerase chain reaction) assay. On day one, cryopreserved human hepatocytes were thawed in prewarmed (37° C.) thawing medium (cryopreserved hepatocyte recovery medium, Gibco™ CM 7000; Thermo Fisher Scientific), centrifuged (1000 g for 10 minutes) and resuspended in plating medium (Gibco™ CM3000—Williams Medium E supplemented with hepatocytes plating supplement pak-serum containing; Thermo Fisher Scientific). Cells were counted by trypan blue exclusion using a hemocytometer and adjusted to a cell density of […]. Thereafter, […] of cell suspension was aliquoted per well in a 96-well plate, resulting in 60,000 cells/well. Plates were shaken in the north-south and east-west direction during plating. Plated cells were incubated at 37° C./5% CO2 in a humidified cell culture incubator for 4-6 hours. During this time, incubation medium (Gibco™ CM4000, cell maintenance supplement pack; Thermo Fisher Scientific) was mixed with Gibco™ Geltrex™ (Thermo Fischer Scientific) at the appropriate Geltrex™ protein concentration. Following recovery, medium was removed from cells and replaced with freshly prepared incubation medium. Cells were incubated overnight in a cell culture incubator (37° C./5% CO2).
The next day the incubation medium was prepared by combining the hepatocyte maintenance supplement pack with Williams medium E. The medium was warmed to 37° C. 1000× dimethyl sulfoxide compound stocks were prepared to the desired concentrations. 10 mM compound stocks in dimethyl sulfoxide were diluted (1 μL to 1 mL CM4000; final concentration=10 μM). Overlay medium was aspirated and […] dose solution added to the desired labeled 96 well plate. Cells were returned to the humidified incubator overnight (37° C./5% CO2).
On day 3, incubation medium was warmed to 37° C., and the same process for compound preparation repeated as in day 2, i.e. 1000× dimethyl sulfoxide compound stocks were prepared to the desired concentration, diluted (1:1000) in warm incubation medium, and this freshly prepared medium was used to replace treatment medium. Cells were returned to the humidified incubator (37° C./5% CO2) overnight.
On day 4, RNA isolation was performed. Prior to RNA isolation, cell viability was assessed using presto blue reagent. 10× dilution of PrestoBlue™ reagent (Thermo Fisher Scientific) was prepared by mixing 1.4 mL PrestoBlue™ with 12.6 mL incubation medium. Medium was aspirated from cells, and 100 μL of cell viability medium (10× dilution of PrestoBlue™ reagent) added and incubated for 17 minutes. Cell viability was determined by measuring absorbance using a microplate reader (Spark® 10M Tecan Life Sciences). After this measurement, media was aspirated using a multichannel aspirator and a glass pipet to completely aspirate from each well. Plates were stored or immediately used for mRNA isolation. All surfaces were cleaned using RNase away. 2× Lysis buffer was well mixed after incubation at ambient temperature. Fresh lysis buffer was prepared by mixing 0.125 μL of 0.5 mM DTT with 4.875 μL 2× lysis buffer. 1× lysis buffer containing DTT was then prepared by adding 5 μL dilution buffer to the 2× lysis buffer and mixing thoroughly. Thereafter, cell lysates were prepared by adding 1× lysis buffer to each sample well (96-well plate). Samples were incubated for 3-6 minutes at ambient temperature while shaking (350-400 rpm) to lyse the cells. Cells were scrapped with tips, and cell lysate (80 μL) was transferred to each well of the mRNA Catcher PLUS™ plate (Thermo Fisher Scientific). mRNA Catcher PLUS™ plate containing samples was covered with adhesive plastic film plate cover and incubated at ambient temperature for 45-60 minutes for RNA hybridization.
After hybridization, lysate was aspirated from the cells. […]
(In qPCR the cycle at which signal appears reflects the starting amount.)

In data set [1] the target is T2, Full length BTK enzyme (human BTK residues 2-659) (Homo sapiens, UniProt Q06187).
T2 construct: 6His (N); Flag (N); TEV cleavage site (N); Serine (single linker residue before BTK residue 2) (N); made in house; host or cells: baculovirus (pFastBac vector)
T2 sequence (Q06187 2-659): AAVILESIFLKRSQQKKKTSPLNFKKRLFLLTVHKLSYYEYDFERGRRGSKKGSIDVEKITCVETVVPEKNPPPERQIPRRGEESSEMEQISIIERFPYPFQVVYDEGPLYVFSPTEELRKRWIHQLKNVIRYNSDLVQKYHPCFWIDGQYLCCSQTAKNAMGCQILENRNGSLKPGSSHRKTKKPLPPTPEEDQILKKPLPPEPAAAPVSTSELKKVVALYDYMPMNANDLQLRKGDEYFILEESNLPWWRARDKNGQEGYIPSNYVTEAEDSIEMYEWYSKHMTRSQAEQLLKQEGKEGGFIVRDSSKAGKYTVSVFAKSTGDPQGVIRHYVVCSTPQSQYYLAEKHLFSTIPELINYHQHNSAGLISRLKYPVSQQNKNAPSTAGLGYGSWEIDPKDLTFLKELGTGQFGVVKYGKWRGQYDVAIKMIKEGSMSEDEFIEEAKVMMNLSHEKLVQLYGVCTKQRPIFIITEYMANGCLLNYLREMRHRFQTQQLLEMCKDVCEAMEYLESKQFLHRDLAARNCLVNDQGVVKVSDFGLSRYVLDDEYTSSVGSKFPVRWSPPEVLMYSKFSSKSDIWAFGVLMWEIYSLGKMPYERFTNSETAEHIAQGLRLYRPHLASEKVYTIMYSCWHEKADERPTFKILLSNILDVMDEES
The data set is described as follows: BTK MSA with full length BTK enzyme, used for Examples 50, 51, 62 and 63. It counts as biochemical. As to conditions: Examples 50, 51, 62 and 63: 1 mM ATP, 0.6 nM full length BTK enzyme, 3 hours at room temperature. On the procedure: Kinase activities for Examples 50, 51, 62 and 63 were measured in vitro using the following electrophoretic mobility shift assay (MSA). The kinase reactions were assembled in a total volume of 20 μL in 384 well plates. To each well, 20 nL test compound, or control, in 100% dimethyl sulfoxide was spotted using Echo®, a liquid dispensing instrument (Labcyte, Indianapolis, Ind.). To each well was added: 12 μL of 1.67× Full length BTK enzyme in Master Buffer (Master Buffer components: 20 mM HEPES pH 7.4, 10 mM MgCl2, 1 mM DTT, 0.1 mM sodium orthovanadate, 10 mM beta-glycerophosphate, and 0.0075% w/v Triton x-100). Full length BTK enzyme was 6His-Flag-(TEV)-S[BTK(hu) (2-659)]*BEV, pFastBac*. [Note: this is a description of the exact amino acid sequence of the expressed BTK construct from N- to C-terminus: 6Histidines, Flag tag sequence, TEV cleavage site, Serine, human BTK residues 2-659; and BEV=expressed in baculovirus, pFastBac is the expression vector used].
Enzyme and compound/inhibitor were optionally pre-incubated. To each well was added: 8 μL of 2.5×ATP and substrate in 1× Master Buffer (1× Master Buffer as described above). The plate was incubated at room temperature for 3 hours. The reaction was terminated by adding 30 μL of 1.67× Stop Buffer (Stop Buffer components 10 mM EDTA in water), to each well. The final reaction mixture was as follows: 20 mM HEPES, pH 7.4; 0.0075% Triton X-100; 1 mM DTT; 10 mM MgCl2; 0.1 mM sodium orthovanadate; 10 mM beta-glycerophosphate; 0.1% dimethyl sulfoxide (from compound); 1 mM ATP; 1 μM (OG488-SEQ ID NO. 2-NH2) peptide substrate; and 0.6 nM BTK enzyme. […] The kinase activity for the kinases in Table 3 were measured at 3 hours incubation time, except that in the case of MAP2K1 and MAP2K2 assay, pre-activation of ERK was done for 30 min with 6 μM of ATP, and then the detection of activated ERK in the presence of compounds was done after 60 minutes of incubation.
The terminated reactions were analyzed using a 12 channel LABCHIP® 3000 microfluidic detection instrument (available from Caliper Life Sciences, Waltham, Mass.). […] As substrate and product peptides were separated, two peaks of fluorescence were observed. Change in the relative fluorescence intensity of the substrate and product peaks was the parameter measured, reflecting enzyme activity. […] Capillary electrophoregrams (RDA acquisition files) were analyzed using HTS Well Analyzer software (available from Caliper Life Sciences, Waltham, Mass.).
Activity in each sample was determined as the product to sum ratio (PSR): P/(S+P), where P was the peak height of the product peptide and S was the peak height of the substrate peptide. For each compound, enzyme activity was measured at various concentrations (12 concentrations of compound spaced by 3× dilution intervals). […]

Data set [2] concerns the target T3, Phosphorylation of Y223 of BTK (Homo sapiens, UniProt Q06187).
T3 construct: host or cells: healthy human whole blood, 3 donors
The data set is described as follows: Whole blood compound screening, phosphorylation of Y223 site of BTK (MSD assay). The format is cell-based. To be noted: healthy human whole blood, 2 hours at 37° C., 3 separate donors; read-out: WB BTK-pY223 EC50. The protocol: Healthy human whole blood (WB) was collected from […]™ Technologies or […]® in sodium heparinized tubes. Whole blood was stored at ambient temperature to avoid coagulation. Each compound was tested in 3 separate donors. Compound stock solutions (10 mM) were used to generate dose titration (8 concentrations, starting concentration 10 μM, 1:4 dilution) in appropriate volume of dimethyl sulfoxide (0.2%). Whole blood was incubated with compounds in 96-well plates for 2 hours in tissue culture incubators at 37° C. under a 5% CO2 atmosphere. The whole blood was lysed in equal volume of lysis buffer (Cell Signaling Technology®, Danvers, Mass.) containing complete protease inhibitor tablet, PhosSTOP™ tablet, sodium orthovanadate and sodium fluoride and phenylmethanesulfonyl fluoride solution. The lysed whole blood was then frozen at −80° C. for overnight.
Phosphorylation of Y223 of BTK was measured using an MSD assay (Meso Scale Diagnostics, LLC, Rockville, Md.). The thawed lysed whole blood was incubated with the capturing antibody rabbit anti-human BTK (D3H5) (Cell Signaling Technology, Danvers, Mass.) at 4° C. overnight. After washing out the unbound samples, the detection antibody biotinylated rabbit anti-pY223-BTK(D9T6H) (Cell Signaling Technology®, Danvers, Mass.) was added to the plates. After washing out the unbound antibodies, SULFO-TAG Streptavidin (Meso Scale Diagnostics, LLC, Rockville, Md.) was used for detection on Meso Sector S600 (Meso Scale Diagnostics, LLC, Rockville, Md.).
The EC50 values were determined using software from Dotmatics. The activity of exemplary compounds is illustrated below.

Molecules are shown by their SMILES.

T1 sequence (Q06187 whole entry): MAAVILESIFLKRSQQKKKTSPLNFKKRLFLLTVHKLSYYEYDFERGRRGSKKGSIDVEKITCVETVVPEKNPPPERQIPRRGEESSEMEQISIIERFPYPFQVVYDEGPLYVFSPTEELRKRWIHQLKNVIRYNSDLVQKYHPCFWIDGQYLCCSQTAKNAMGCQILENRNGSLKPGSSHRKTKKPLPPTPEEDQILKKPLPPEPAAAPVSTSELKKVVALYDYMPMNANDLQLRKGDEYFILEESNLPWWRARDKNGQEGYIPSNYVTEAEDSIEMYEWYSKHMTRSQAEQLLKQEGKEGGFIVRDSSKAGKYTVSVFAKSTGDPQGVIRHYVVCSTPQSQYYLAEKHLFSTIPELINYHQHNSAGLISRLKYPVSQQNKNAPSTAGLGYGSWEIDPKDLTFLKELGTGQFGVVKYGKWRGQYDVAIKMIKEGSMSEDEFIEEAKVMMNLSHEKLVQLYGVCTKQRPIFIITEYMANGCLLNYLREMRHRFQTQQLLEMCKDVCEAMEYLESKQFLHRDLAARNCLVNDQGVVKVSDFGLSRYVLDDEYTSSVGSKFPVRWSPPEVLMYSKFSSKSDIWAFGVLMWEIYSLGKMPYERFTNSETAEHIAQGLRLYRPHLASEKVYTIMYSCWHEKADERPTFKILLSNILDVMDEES
T3 sequence (Q06187 whole entry): as above

Turning to `C=CC(=O)N1C2CC1CN(C1CCNc3c1nn(-c1ccc(Oc4ccccc4)cc1)c3C(N)=O)C2` (stereo not drawn) [Example 45, 2-(4-phenoxyphenyl)-7-[6-(prop-2-enoyl)-3,6-diazabicyclo[3.1.1]heptan-3-yl]-4,5,6,7-tetrahydro-2H-pyrazolo[4,3-b]pyridine-3-carboxamide], the IC50 on BTK amounted to 2.33 nM. Further, the “CYP3A4 Ind. fold” value in the data set with CYP3A4 is listed as 25.40 fold.

In data set [1], `CCO/C=C/C(=O)N1CCN([C@@H]2CCNc3c2nn(-c2ccc(Oc4ccccc4)cc2)c3C(N)=O)CC1` [Example 50, (7R)-7-{4-[(2E)-3-ethoxyprop-2-enoyl]piperazin-1-yl}-2-(4-phenoxyphenyl)-4,5,6,7-tetrahydro-2H-pyrazolo[4,3-b]pyridine-3-carboxamide] had an IC50 of 38.6 nM.

In data set [1], `COC(=O)/C=C/C(=O)N1CCN(C2CCNc3c2nn(-c2ccc(Oc4ccccc4)cc2)c3C(N)=O)CC1` (stereo not drawn) [Example 51, methyl (2E)-4-{4-[3-carbamoyl-2-(4-phenoxyphenyl)-4,5,6,7-tetrahydro-2H-pyrazolo[4,3-b]pyridin-7-yl]piperazin-1-yl}-4-oxobut-2-enoate] returned an IC50 of 507 nM.

Turning to `C=CC(=O)N1CCN([C@@H]2CCNc3c2nn(-c2ccc(Oc4cc(F)cc(F)c4)cc2)c3C(N)=O)CC1` [Example 58, (7R)-2-[4-(3,5-difluorophenoxy)phenyl]-7-[4-(prop-2-enoyl)piperazin-1-yl]-4,5,6,7-tetrahydro-2H-pyrazolo[4,3-b]pyridine-3-carboxamide], the IC50 at BTK was found to be 77.5 nM. Moreover, the “CYP3A4 Ind. fold” value in the data set on CYP3A4 was determined as 1.58 fold.

For `C=CC(=O)N1CCN([C@H]2CCNc3c2nn(-c2ccc(Oc4cc(F)cc(F)c4)cc2)c3C(N)=O)CC1` [Example 59, (7S)-2-[4-(3,5-difluorophenoxy)phenyl]-7-[4-(prop-2-enoyl)piperazin-1-yl]-4,5,6,7-tetrahydro-2H-pyrazolo[4,3-b]pyridine-3-carboxamide], the IC50 at BTK amounted to 2.17 nM. Besides, the “CYP3A4 Ind. fold” value in the data set with CYP3A4 stood at 0.85 fold. In data set [2], the 50% effective concentration (EC50) stood at 117 nM.

For `C=CC(=O)N1CCN([C@@H]2CCNc3c2nn(-c2ccc(Oc4cccc(OC)c4)cc2)c3C(N)=O)CC1` [Example 91, (7R)-2-[4-(3-methoxyphenoxy)phenyl]-7-[4-(prop-2-enoyl)piperazin-1-yl]-4,5,6,7-tetrahydro-2H-pyrazolo[4,3-b]pyridine-3-carboxamide], on BTK, the IC50 worked out at 1.66 nM. For the same compound, the EC50 in data set [2] was 399 nM.

`C=CC(=O)N1CCN([C@@H]2CCNc3c2nn(-c2ccc(Oc4ccc(C)cc4)cc2)c3C(N)=O)CC1` [Example 92, (7R)-2-[4-(4-methylphenoxy)phenyl]-7-[4-(prop-2-enoyl)piperazin-1-yl]-4,5,6,7-tetrahydro-2H-pyrazolo[4,3-b]pyridine-3-carboxamide]: at BTK, the concentration for half-maximal inhibition (IC50) was found to be 2.42 nM. In addition, the EC50 in data set [2] came out at 608 nM.

Turning to `C=CC(=O)N1CCN([C@@H]2CCNc3c2nn(-c2ccc(Oc4ccccc4OC)cc2)c3C(N)=O)CC1` [Example 93, (7R)-2-[4-(2-methoxyphenoxy)phenyl]-7-[4-(prop-2-enoyl)piperazin-1-yl]-4,5,6,7-tetrahydro-2H-pyrazolo[4,3-b]pyridine-3-carboxamide], the IC50 at BTK is 5.09 nM. Also, the EC50 in data set [2] was 400 nM.

A word on the IC50: it is the point on the concentration scale where inhibition reaches its midpoint. For orientation: EC50 means the concentration needed to bring the measured effect to its halfway point.

Source of the values: patent US20220213092A1, “BICYCLIC PYRAZOLE BRUTON'S TYROSINE KINASE INHIBITORS” (AbbVie Inc., priority 2020, published 2022).
